The text below walks through data of patent publication US8895761B2, “4-phenylpyrane-3,5-diones, 4-phenylthiopyrane-3,5-diones and 2-phenylcyclohexane-1,3,5-triones as herbicides” (Syngenta Limited, priority 2007, dated 2014).

The term pest or weed control denotes how far the test organism was held down. A higher pest or weed control goes with a strong effect.

Assay type in all cases: in vivo
Experiment [1] deals with Alopecurus myosuroides (ALOMY). In words: Post-emergence herbicidal glasshouse test, Alopecurus myosuroides. To be noted: Alopecurus myosuroides, 312 h, rate 250 g/ha, evaluated after 13 days, scale 100 = total damage to plant, 0 = no damage. Put shortly: (§1)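 Seeds were sown in standard soil in pots and sprayed one day after sowing (pre-emergence) or after 8 days' growth (post-emergence). The spray was an aqueous solution from the active ingredient formulated in acetone/water (50:50) with 0.5% Tween 20. Plants grew at 24/16° C. day/night, 14 h light, 65% humidity, watered twice daily. Damage was scored after 13 days on a scale from 0 (no damage) to total damage.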

Experiment [2] concerns Echinochloa crus-galli (ECHCG). In words: Post-emergence herbicidal glasshouse test, Echinochloa crus-galli. The following applies: Echinochloa crus-galli, 312 h, rate 250 g/ha, evaluated after 13 days, scale 100 = total damage to plant, 0 = no damage. Put shortly:
as §1

Experiment [3] concerns Setaria faberi (SETFA). Put plainly: Post-emergence herbicidal glasshouse test, Setaria faberi. The following applies: Setaria faberi, 312 h, rate 250 g/ha, evaluated after 13 days, scale 100 = total damage to plant, 0 = no damage. The procedure:
(§2) Seeds of a variety of test species were sown in standard soil in pots. After cultivation for one day (pre-emergence) or after 8 days cultivation (post-emergence) under controlled conditions in a glasshouse (at 24/16° C., day/night; 14 hours light; 65% humidity), the plants were sprayed with an aqueous spray solution derived from the formulation of the technical active ingredient in acetone/water (50:50) solution containing 0.5% Tween 20 (polyoxyethelyene sorbitan monolaurate, CAS RN 9005-64-5). The test plants were then grown in a glasshouse under controlled conditions in a glasshouse (at 24/16° C., day/night; 14 hours light; 65% humidity) and watered twice daily. After 13 days for pre and post-emergence, the test was evaluated ([…] to plant; 0=no damage to plant).
(§3) Setaria faberi (SETFA), Lolium perenne (LOLPE), Alopecurus myosuroides (ALOMY), Echinochloa crus-galli (ECHCG) and Avena fatua (AVEFA).

The test system of experiment [4] is Alopecurus myosuroides (ALOMY). In words: Pre-emergence herbicidal glasshouse test, Alopecurus myosuroides. The following applies: Alopecurus myosuroides, 312 h, rate 250 g/ha, evaluated after 13 days, scale 100 = total damage to plant, 0 = no damage. Put shortly:
as §1

The test system of experiment [5] is Setaria faberi (SETFA). In words: Pre-emergence herbicidal glasshouse test, Setaria faberi. To be noted: Setaria faberi, 312 h, rate 250 g/ha, evaluated after 13 days, scale 100 = total damage to plant, 0 = no damage. The procedure: as §2, §3
The subject of experiment [6] is Avena fatua (AVEFA). In words: Post-emergence herbicidal glasshouse test, Avena fatua. To be noted: Avena fatua, 312 h, rate 250 g/ha, evaluated after 13 days, scale 100 = total damage to plant, 0 = no damage. The method, boiled down:
as §1

The subject of experiment [7] is Avena fatua (AVEFA). Put plainly: Pre-emergence herbicidal glasshouse test, Avena fatua. The following applies: Avena fatua, 312 h, rate 250 g/ha, evaluated after 13 days, scale 100 = total damage to plant, 0 = no damage. The method, boiled down: as §1
Experiment [8] has as its system Echinochloa crus-galli (ECHCG). Put plainly: Pre-emergence herbicidal glasshouse test, Echinochloa crus-galli. The following applies: Echinochloa crus-galli, 312 h, rate 250 g/ha, evaluated after 13 days, scale 100 = total damage to plant, 0 = no damage. The method, boiled down:
as §1

The subject of experiment [9] is Lolium perenne (LOLPE). Put plainly: Post-emergence herbicidal glasshouse test, Lolium perenne. To be noted: 312 h, rate 250 g/ha, evaluated after 13 days, scale 100 = total damage to plant, 0 = no damage. Put shortly:
as §1

Experiment [10] deals with Lolium perenne (LOLPE). Put plainly: Pre-emergence herbicidal glasshouse test, Lolium perenne. The following applies: 312 h, rate 250 g/ha, evaluated after 13 days, scale 100 = total damage to plant, 0 = no damage. Put shortly:
as §1

In the case of `Cc1cc(-c2ccccc2)cc(C)c1C1=C(O)C(C)(C)OC(C)(C)C1=O` [Compound A-1], the pest or weed control at 250 g/ha in experiment [1] turned out to be 50%; in experiment [2], 100%; in the experiment with Setaria faberi (SETFA) [3] it was 80%; in experiment [4], 30%; with Setaria faberi (SETFA) [5], 90%; with Avena fatua (AVEFA) [6], 0%. Moreover, the values for the pest or weed control at 250 g/ha (with Avena fatua (AVEFA) [7]; in [8]) were 40% and 70%, respectively.
Consider `CCc1cc(-c2ccc(Cl)c(C(F)(F)F)c2)ccc1C1=C(O)[C@@]2(C)CC[C@H](O2)C1=O` [Compound A-22], for which the pest or weed control at 250 g/ha in [1] was 100%; in [2], 90%; with Setaria faberi (SETFA) [3], 100%; in experiment [4], 0%; in the experiment on Setaria faberi (SETFA) [5], 50%; with Avena fatua (AVEFA) [6] it was 70%. Besides, the values for the pest or weed control at 250 g/ha (in the experiment on Avena fatua (AVEFA) [7]; in experiment [8]) were 50% and 40%, respectively.
For the molecule `CCc1cc(-c2ccc(Cl)nc2)ccc1C1=C(O)[C@@]2(C)CC[C@H](O2)C1=O` [Compound A-25], the pest or weed control at 250 g/ha is 90% in [1]; 100% in experiment [2]; 100% with Setaria faberi (SETFA) [3]; 30% in [4]; 90% in the experiment with Setaria faberi (SETFA) [5]; 60% in the experiment on Avena fatua (AVEFA) [6]. For the same molecule, the pest or weed control at 250 g/ha in the experiment on Avena fatua (AVEFA) [7] stood at 20%; in [8], 50%.
With `CCc1cc(-c2ccc(Cl)c(C)c2)ccc1C1=C(O)[C@@]2(C)CC[C@H](O2)C1=O` [Compound A-19], the pest or weed control at 250 g/ha in experiment [1] is 90%; in [2] it was 90%; with Setaria faberi (SETFA) [3], 80%; in experiment [4], 0%; in the experiment with Setaria faberi (SETFA) [5], 0%; in the experiment with Avena fatua (AVEFA) [6], 60%. Also, the pest or weed control at 250 g/ha was 30% in the experiment on Avena fatua (AVEFA) [7] and 80% in experiment [8].
Take `CCc1cc(-c2ccc(Cl)cc2)cc(CC)c1C1=C(O)[C@@]2(C)CC[C@H](O2)C1=O` (racemic) [Compound A-11]: the pest or weed control at 250 g/ha in [1] was found to be 100%; in experiment [2] it was 100%; with Setaria faberi (SETFA) [3], 100%; in [4], 80%; with Setaria faberi (SETFA) [5] it was 100%; with Avena fatua (AVEFA) [6] it was 100%. Besides, the pest or weed control at 250 g/ha (in the experiment with Avena fatua (AVEFA) [7]; in experiment [8]) was 100% each time.
With `Cc1cc(-c2ccc(Cl)cc2)ccc1C1=C(O)[C@@]2(C)CC[C@H](O2)C1=O` (racemic) [Compound A-10], the pest or weed control at 250 g/ha is 90% in [1]; 100% in [2]; 100% with Setaria faberi (SETFA) [3]; 0% in [4]; 0% with Setaria faberi (SETFA) [5]; 50% in the experiment on Avena fatua (AVEFA) [6]. For the same molecule, the pest or weed control at 250 g/ha came to 0% in the experiment on Avena fatua (AVEFA) [7] and 30% in [8].
Consider `CCc1cc(-c2ccc(C)cc2)cc(CC)c1C1=C(O)[C@@]2(C)CC[C@H](O2)C1=O` (racemic) [Compound A-12], for which the pest or weed control at 250 g/ha in experiment [1] worked out at 70%; in experiment [2], 100%; with Setaria faberi (SETFA) [3] it was 100%; in [4], 30%; in the experiment with Setaria faberi (SETFA) [5], 80%; in the experiment on Avena fatua (AVEFA) [6], 0%. Besides, the pest or weed control at 250 g/ha in the experiment with Avena fatua (AVEFA) [7] was 20%; in experiment [8] it was 70%.
With `CCc1cc(-c2ccc(Cl)c(Cl)c2)ccc1C1=C(O)[C@@]2(C)CC[C@H](O2)C1=O` [Compound A-17], the pest or weed control at 250 g/ha was found to be 100% in experiment [1]; 100% in [2]; 100% in the experiment with Setaria faberi (SETFA) [3]; 30% in [4]; 100% in the experiment on Setaria faberi (SETFA) [5]; 100% in the experiment with Avena fatua (AVEFA) [6]. Further, the pest or weed control at 250 g/ha in the experiment with Avena fatua (AVEFA) [7] was 80%; in [8], 100%.
Take `CCc1cc(-c2ccc(C)cc2)ccc1C1=C(O)C(C)(C)OC(C)(C)C1=O` [Compound A-73]: the pest or weed control at 250 g/ha in experiment [1] is 30%; in the experiment on Lolium perenne (LOLPE) [9], 60%; in [2] it was 80%; in experiment [4] it was 0%; in the experiment on Avena fatua (AVEFA) [6], 0%; with Lolium perenne (LOLPE) [10], 0%. In addition, the pest or weed control at 250 g/ha (in the experiment on Avena fatua (AVEFA) [7]; in experiment [8]) was 0% each time.
`CCc1cc(-c2cccc(OC)c2)ccc1C1=C(O)C(C)(C)OC(C)(C)C1=O` [Compound A-71]: the pest or weed control at 250 g/ha is 30% in experiment [1]; 80% in the experiment with Lolium perenne (LOLPE) [9]; 80% in experiment [2]; 0% in [4]; 0% in the experiment with Avena fatua (AVEFA) [6]; 0% in the experiment on Lolium perenne (LOLPE) [10]. The pest or weed control at 250 g/ha (in the experiment on Avena fatua (AVEFA) [7]; in [8]) was 0% throughout.
With `CCc1cc(-c2ccc(Cl)c(F)c2)ccc1C1=C(O)C(C)(C)OC(C)(C)C1=O` [Compound A-42], the pest or weed control at 250 g/ha turned out to be 90% in experiment [1]; 90% in the experiment with Lolium perenne (LOLPE) [9]; 100% in [2]; 10% in [4]; 80% in the experiment on Avena fatua (AVEFA) [6]; 90% in the experiment with Lolium perenne (LOLPE) [10]. Further, the pest or weed control at 250 g/ha in the experiment with Avena fatua (AVEFA) [7] was 20%; in experiment [8], 90%.
Regarding `CCc1cc(-c2ccc(Cl)cc2Cl)cc(CC)c1C1=C(O)[C@@]2(C)CC[C@H](O2)C1=O` (relative stereo) [Compound A-34], the pest or weed control at 250 g/ha amounted to 30% in [1], 70% in [2], 90% in the experiment on Setaria faberi (SETFA) [3] and 20% in the experiment on Avena fatua (AVEFA) [6].
For the molecule `CCc1cc(-c2ccc(Cl)cc2F)ccc1C1=C(O)C(C)(C)OC(C)(C)C1=O` [Compound A-51], the pest or weed control at 250 g/ha worked out at 60% in experiment [1]; 50% with Lolium perenne (LOLPE) [9]; 70% in [2]; 0% in experiment [4]; 60% with Avena fatua (AVEFA) [6]; 0% in the experiment on Lolium perenne (LOLPE) [10]. For the same molecule, the figures for the pest or weed control at 250 g/ha (in the experiment on Avena fatua (AVEFA) [7]; in experiment [8]) were 0% and 20%, respectively.
On to `CCc1cc(-c2ccc(Cl)cc2F)ccc1C1=C(O)[C@@]2(C)CC[C@H](O2)C1=O` (racemic) [Compound A-14], for which the pest or weed control at 250 g/ha in experiment [1] amounted to 80%; in the experiment on Lolium perenne (LOLPE) [9] it was 100%; in experiment [2], 100%; in experiment [4], 50%; with Avena fatua (AVEFA) [6] it was 100%; with Lolium perenne (LOLPE) [10] it was 80%. In addition, the pest or weed control at 250 g/ha amounted to 50% with Avena fatua (AVEFA) [7] and 80% in experiment [8].
As to `Cc1cc(-c2cc(Cl)cc(Cl)c2)cc(C)c1C1=C(O)[C@@]2(C)CC[C@H](O2)C1=O` [Compound A-54], the pest or weed control at 250 g/ha in experiment [1] came out at 40%; in the experiment on Lolium perenne (LOLPE) [9], 40%; in experiment [2] it was 80%; in experiment [4] it was 0%; in the experiment on Avena fatua (AVEFA) [6] it was 30%; in the experiment with Lolium perenne (LOLPE) [10] it was 0%. For the same molecule, the pest or weed control at 250 g/ha (in the experiment on Avena fatua (AVEFA) [7]; in experiment [8]) was 0% throughout.
Regarding `CC1(C)OC(C)(C)C(O)=C(c2ccc(-c3ccc(F)cc3)cc2OC(F)(F)F)C1=O` [Compound A-135], the pest or weed control at 250 g/ha in [1] is 60%; in the experiment on Lolium perenne (LOLPE) [9] it was 60%; in experiment [2], 100%; in experiment [4] it was 30%; with Avena fatua (AVEFA) [6], 10%; with Lolium perenne (LOLPE) [10] it was 10%. Further, the results for the pest or weed control at 250 g/ha (in the experiment with Avena fatua (AVEFA) [7]; in [8]) were 10% and 30%, respectively.
